Data as given in ChEMBL document CHEMBL2440076, “New triarylpyrazoles as broad-spectrum anticancer agents: design, synthesis, and biological evaluation” (Eur J Med Chem, 2013).

Experiments:
Format in all cases: functional
MDA-MB-435 [1] = test: Growth inhibition of human MDA-MB-435 cells assessed as cell growth at 5X10'-5 M after 48 hrs by sulforhodamine B assay; conditions: MDA-MB-435, 48 h, read-out: Activity
M14 = test: Growth inhibition of human M14 cells assessed as cell growth at 5X10'-5 M after 48 hrs by sulforhodamine B assay; conditions: M14, 48 h, read-out: Activity
SNB-75 = test: Growth inhibition of human SNB75 cells assessed as cell growth at 5X10'-5 M after 48 hrs by sulforhodamine B assay; conditions: SNB-75, 48 h, read-out: Activity
SF-268 = test: Growth inhibition of human SF268 cells assessed as cell growth at 5X10'-5 M after 48 hrs by sulforhodamine B assay; conditions: SF-268, 48 h, read-out: Activity
NCI-H460 = test: Growth inhibition of human NCI-H460 cells assessed as cell growth at 5X10'-5 M after 48 hrs by sulforhodamine B assay; conditions: NCI-H460, 48 h, read-out: Activity
NCI-H226 = test: Growth inhibition of human NCI-H226 cells assessed as cell growth at 5X10'-5 M after 48 hrs by sulforhodamine B assay; conditions: NCI-H226, 48 h, read-out: Activity
SR = test: Growth inhibition of human SR cells assessed as cell growth at 5X10'-5 M after 48 hrs by sulforhodamine B assay; conditions: read-out: Activity
A498 [2] = test: Growth inhibition of human A498 cells assessed as cell growth at 5X10'-6 M after 48 hrs by sulforhodamine B assay; conditions: A498, 48 h, read-out: Activity
SK-OV-3 = test: Growth inhibition of human SKOV3 cells assessed as cell growth at 5X10'-6 M after 48 hrs by sulforhodamine B assay; conditions: SK-OV-3, 48 h, read-out: Activity
OVCAR-5 = test: Growth inhibition of human OVCAR5 cells assessed as cell growth at 5X10'-6 M after 48 hrs by sulforhodamine B assay; conditions: OVCAR-5, 48 h, read-out: Activity
SF-295 [3] = test: Growth inhibition of human SF295 cells assessed as cell growth at 5X10'-6 M after 48 hrs by sulforhodamine B assay; conditions: SF-295, 48 h, read-out: Activity
HCT-116 [4] = test: Growth inhibition of human HCT116 cells assessed as cell growth at 5X10'-6 M after 48 hrs by sulforhodamine B assay; conditions: HCT-116, 48 h, read-out: Activity
K562 = test: Growth inhibition of human K562 cells assessed as cell growth at 5X10'-6 M after 48 hrs by sulforhodamine B assay; conditions: K562, 48 h, read-out: Activity
T47D = test: Growth inhibition of human T47D cells assessed as cell growth at 5X10'-7 M after 48 hrs by sulforhodamine B assay; conditions: read-out: Activity
BT-549 [5] = test: Growth inhibition of human BT549 cells assessed as cell growth at 5X10'-7 M after 48 hrs by sulforhodamine B assay; conditions: BT-549, 48 h, read-out: Activity
CAKI-1 = test: Growth inhibition of human CAKI-1 cells assessed as cell growth at 5X10'-7 M after 48 hrs by sulforhodamine B assay; conditions: CAKI-1, 48 h, read-out: Activity
OVCAR-8 = test: Growth inhibition of human OVCAR8 cells assessed as cell growth at 5X10'-7 M after 48 hrs by sulforhodamine B assay; conditions: OVCAR-8, 48 h, read-out: Activity
UACC-62 [6] = test: Growth inhibition of human UACC62 cells assessed as cell growth at 5X10'-7 M after 48 hrs by sulforhodamine B assay; conditions: UACC-62, 48 h, read-out: Activity
SK-MEL-2 [7] = test: Growth inhibition of human SK-MEL-2 cells assessed as cell growth at 5X10'-7 M after 48 hrs by sulforhodamine B assay; conditions: SK-MEL-2, 48 h, read-out: Activity
MDA-MB-435 [8] = test: Growth inhibition of human MDA-MB-435 cells assessed as cell growth at 5X10'-7 M after 48 hrs by sulforhodamine B assay; conditions: MDA-MB-435, 48 h, read-out: Activity
HCT-116 [9] = test: Growth inhibition of human HCT116 cells assessed as cell growth at 5X10'-7 M after 48 hrs by sulforhodamine B assay; conditions: HCT-116, 48 h, read-out: Activity
NCI-H23 = test: Growth inhibition of human NCI-H23 cells assessed as cell growth at 5X10'-7 M after 48 hrs by sulforhodamine B assay; conditions: NCI-H23, 48 h, read-out: Activity
HOP-62 = test: Growth inhibition of human HOP62 cells assessed as cell growth at 5X10'-7 M after 48 hrs by sulforhodamine B assay; conditions: HOP-62, 48 h, read-out: Activity
PC-3 [10] = test: Growth inhibition of human PC3 cells assessed as cell growth at 5X10'-8 M after 48 hrs by sulforhodamine B assay; conditions: PC-3, 48 h, read-out: Activity
ACHN = test: Growth inhibition of human ACHN cells assessed as cell growth at 5X10'-8 M after 48 hrs by sulforhodamine B assay; conditions: read-out: Activity
UACC-62 [11] = test: Growth inhibition of human UACC62 cells assessed as cell growth at 5X10'-8 M after 48 hrs by sulforhodamine B assay; conditions: UACC-62, 48 h, read-out: Activity
BT-549 [12] = test: Growth inhibition of human BT549 cells assessed as cell growth at 5X10'-5 M after 48 hrs by sulforhodamine B assay; conditions: BT-549, 48 h, read-out: Activity
DU-145 = test: Growth inhibition of human DU145 cells assessed as cell growth at 5X10'-5 M after 48 hrs by sulforhodamine B assay; conditions: DU-145, 48 h, read-out: Activity
A498 [13] = test: Growth inhibition of human A498 cells assessed as cell growth at 5X10'-5 M after 48 hrs by sulforhodamine B assay; conditions: A498, 48 h, read-out: Activity
OVCAR-4 [14] = test: Growth inhibition of human OVCAR4 cells assessed as cell growth at 5X10'-5 M after 48 hrs by sulforhodamine B assay; conditions: OVCAR-4, 48 h, read-out: Activity
SK-MEL-5 = test: Growth inhibition of human SK-MEL-5 cells assessed as cell growth at 5X10'-5 M after 48 hrs by sulforhodamine B assay; conditions: SK-MEL-5, 48 h, read-out: Activity
SK-MEL-2 [15] = test: Growth inhibition of human SK-MEL-2 cells assessed as cell growth at 5X10'-5 M after 48 hrs by sulforhodamine B assay; conditions: SK-MEL-2, 48 h, read-out: Activity
NCI-H522 = test: Growth inhibition of human NCI-H522 cells assessed as cell growth at 5X10'-8 M after 48 hrs by sulforhodamine B assay; conditions: NCI-H522, 48 h, read-out: Activity
[16] = Growth inhibition of human Hs 578T cells assessed as cell growth at 5X10'-9 M after 48 hrs by sulforhodamine B assay; conditions: read-out: Activity
PC-3 [17] = test: Growth inhibition of human PC3 cells assessed as cell growth at 5X10'-9 M after 48 hrs by sulforhodamine B assay; conditions: PC-3, 48 h, read-out: Activity
OVCAR-4 [18] = test: Growth inhibition of human OVCAR4 cells assessed as cell growth at 5X10'-9 M after 48 hrs by sulforhodamine B assay; conditions: OVCAR-4, 48 h, read-out: Activity
SF-295 [19] = test: Growth inhibition of human SF295 cells assessed as cell growth at 5X10'-9 M after 48 hrs by sulforhodamine B assay; conditions: SF-295, 48 h, read-out: Activity

Row | Compound | growth at 50 µM (MDA-MB-435 [1]) | growth at 50 µM (M14) | growth at 50 µM (SNB-75) | growth at 50 µM (SF-268) | growth at 50 µM (NCI-H460) | growth at 50 µM (NCI-H226) | growth at 50 µM (SR) | growth at 5 µM (A498 [2]) | growth at 5 µM (SK-OV-3) | growth at 5 µM (OVCAR-5) | growth at 5 µM (SF-295 [3]) | growth at 5 µM (HCT-116 [4]) | growth at 5 µM (K562) | growth at 0.5 µM (T47D) | growth at 0.5 µM (BT-549 [5]) | growth at 0.5 µM (CAKI-1) | growth at 0.5 µM (OVCAR-8) | growth at 0.5 µM (UACC-62 [6]) | growth at 0.5 µM (SK-MEL-2 [7]) | growth at 0.5 µM (MDA-MB-435 [8]) | other results
1 | COc1cc(-c2nn(-c3cccc(NC(=O)Nc4cccc(C(F)(F)F)c4)c3)cc2-c2ccncc2)ccc1Cl | -63% | -64% | -30% | -34% | -35% | 7% | -16% | -7% | 16% | 5% | -71% | 3% | 3% | 85% | 91% | 79% | 65% | 74% | 97% | 80% | growth at 0.5 µM (HCT-116 [9]): 66%; growth at 0.5 µM (NCI-H23): 90%; growth at 0.5 µM (HOP-62): 94%; growth at 0.05 µM (PC-3 [10]): 90%; growth at 0.05 µM (ACHN): 97%; growth at 0.05 µM (UACC-62 [11]): 94%; growth at 50 µM (BT-549 [12]): -26%; growth at 50 µM (DU-145): 1%; growth at 50 µM (A498 [13]): -20%; growth at 50 µM (OVCAR-4 [14]): -3%; growth at 50 µM (SK-MEL-5): -97%; growth at 50 µM (SK-MEL-2 [15]): -85%; growth at 0.05 µM (NCI-H522): 91%; growth at 0.005 µM [16]: 96%; growth at 0.005 µM (PC-3 [17]): 92%; growth at 0.005 µM (OVCAR-4 [18]): 99%; growth at 0.005 µM (SF-295 [19]): 96%
2 | COc1cc(-c2nn(-c3cccc(NC(=O)Nc4cc(C(F)(F)F)cc(C(F)(F)F)c4)c3)cc2-c2ccncc2)ccc1Cl | -64% | -28% | -62% | -43% | -59% | -4% | -5% | -43% | -39% | -36% | -71% | -52% | -10% | 89% | 98% | 80% | 51% | 66% | 105% | 85% | growth at 0.5 µM (HCT-116 [9]): 62%; growth at 0.5 µM (NCI-H23): 85%; growth at 0.5 µM (HOP-62): 93%; growth at 0.05 µM (PC-3 [10]): 90%; growth at 0.05 µM (ACHN): 100%; growth at 0.05 µM (UACC-62 [11]): 93%; growth at 50 µM (BT-549 [12]): -57%; growth at 50 µM (DU-145): -80%; growth at 50 µM (A498 [13]): -89%; growth at 50 µM (OVCAR-4 [14]): -21%; growth at 50 µM (SK-MEL-5): -93%; growth at 50 µM (SK-MEL-2 [15]): -84%; growth at 0.05 µM (NCI-H522): 103%; growth at 0.005 µM [16]: 96%; growth at 0.005 µM (PC-3 [17]): 92%; growth at 0.005 µM (OVCAR-4 [18]): 95%; growth at 0.005 µM (SF-295 [19]): 90%
